Measurements from ChEMBL document CHEMBL4265983, “Discovery and biological evaluation of thiobarbituric derivatives as potent p300/CBP inhibitors” (Bioorg Med Chem, 2018).
Active and inactive are the calls of the source. The rule behind the calls is not given here.

Tests used:
[1] = target: Histone acetyltransferase p300 (Homo sapiens, UniProt Q09472); assay: Inhibition of p300 (unknown origin) using human histone as substrate measured after 60 mins in presence of [3H]-acetyl-CoA by microbeta counting method
[2] = target: T1, CREB-binding protein/Histone acetyltransferase p300 (Homo sapiens) (UniProt Q09472+Q92793); assay: Inhibition of P300/CBP acetyl transferase activity in human Kasumi-1 cells assessed as reduction in acetylated H3K18 levels at 2.2 to 60 uM after 24 hrs in presence of SAHA by Western blot analysis; type: cell-based
[3] = target: T1, CREB-binding protein/Histone acetyltransferase p300 (Homo sapiens); assay: Inhibition of P300/CBP acetyl transferase activity in human MV4-11 cells assessed as reduction in acetylated H3K18 levels at 2.2 to 60 uM after 24 hrs in presence of SAHA by Western blot analysis; type: cell-based
MV4-11 [4] = assay: Antiproliferative activity against human MV4-11 cells after 72 hrs by CellTiter-Glo assay; details: MV4-11, 72 h
[5] = target: Histone acetyltransferase KAT5 (Homo sapiens, UniProt Q92993); assay: Inhibition of Tip60 (unknown origin)
[6] = target: T1, CREB-binding protein/Histone acetyltransferase p300 (Homo sapiens); assay: Inhibition of P300/CBP in human MV4-11 cells assessed as downregulation of RRM2B RNA expression at 20 uM after 12 hrs by RT-PCR analysis; type: cell-based
[7] = target: T1, CREB-binding protein/Histone acetyltransferase p300 (Homo sapiens); assay: Inhibition of P300/CBP acetyl transferase activity in human Kasumi-1 cells assessed as reduction in acetylated H3K18 levels after 24 hrs in presence of SAHA by Western blot analysis; type: cell-based
[8] = target: T1, CREB-binding protein/Histone acetyltransferase p300 (Homo sapiens); assay: Inhibition of P300/CBP in human MV4-11 cells assessed as downregulation of CCNB1 RNA expression at 20 uM after 12 hrs by RT-PCR analysis; type: cell-based
MV4-11 [9] = assay: Cell cycle arrest in human MV4-11 cells assessed as accumulation at G1 phase up to 20 uM after 24 hrs by propidium iodide/RNase staining-based flow cytometric analysis; type: functional
MOLT-3 = assay: Antiproliferative activity against human MOLT3 cells after 72 hrs by CellTiter-Glo assay; details: MOLT-3, 72 h
[10] = target: T1, CREB-binding protein/Histone acetyltransferase p300 (Homo sapiens); assay: Inhibition of P300/CBP in human MV4-11 cells assessed as downregulation of CCNA2 RNA expression at 20 uM after 12 hrs by RT-PCR analysis; type: cell-based
[11] = target: T1, CREB-binding protein/Histone acetyltransferase p300 (Homo sapiens); assay: Inhibition of P300/CBP in human MV4-11 cells assessed as upregulation of SESN2 RNA expression at 20 uM after 12 hrs by RNA-seq analysis; type: cell-based
[12] = target: T1, CREB-binding protein/Histone acetyltransferase p300 (Homo sapiens); assay: Inhibition of P300/CBP in human MV4-11 cells assessed as downregulation of MYC RNA expression at 20 uM after 12 hrs by RT-PCR analysis; type: cell-based
K562 = assay: Antiproliferative activity against human K562 cells after 72 hrs by CellTiter-Glo assay; details: K562, 72 h
CREB-binding protein = CREB-binding protein (Homo sapiens, UniProt Q92793); assay: Inhibition of CBP (unknown origin) in presence of [3H]-acetyl-CoA
[13] = target: T1, CREB-binding protein/Histone acetyltransferase p300 (Homo sapiens); assay: Inhibition of P300/CBP in human MV4-11 cells assessed as downregulation of RRM2B RNA expression at 20 uM after 12 hrs by RNA-seq analysis; type: cell-based
[14] = target: T1, CREB-binding protein/Histone acetyltransferase p300 (Homo sapiens); assay: Inhibition of P300/CBP in human MV4-11 cells assessed as upregulation of GADD45B RNA expression at 20 uM after 12 hrs by RNA-seq analysis; type: cell-based
MV4-11 [15] = assay: Antitumor activity against human MV4-11 cells xenografted in ip dosed nude mouse assessed as increase in apoptotic cells administered every 2 days for 20 days by TUNEL assay; type: functional, organism-based
RS4-11 = assay: Antiproliferative activity against human RS4:11 cells after 72 hrs by CellTiter-Glo assay; details: RS4-11, 72 h
THP-1 = assay: Antiproliferative activity against human THP1 cells after 72 hrs by CellTiter-Glo assay; details: THP-1, 72 h
MV4-11 [16] = assay: Induction of apoptosis in human MV4-11 cells assessed as increase in cleaved caspase3 levels after 24 hrs by Western blot analysis; type: functional, cell-based
Jurkat = assay: Antiproliferative activity against human Jurkat cells after 72 hrs by CellTiter-Glo assay
CCRF-CEM = assay: Antiproliferative activity against human CEM cells after 72 hrs by CellTiter-Glo assay
[17] = target: T1, CREB-binding protein/Histone acetyltransferase p300 (Homo sapiens); assay: Inhibition of P300/CBP in human MV4-11 cells assessed as downregulation of HIF1A RNA expression at 20 uM after 12 hrs by RT-PCR analysis; type: cell-based
[18] = target: T1, CREB-binding protein/Histone acetyltransferase p300 (Homo sapiens); assay: Inhibition of P300/CBP in human MV4-11 cells assessed as upregulation of BAX RNA expression at 20 uM after 12 hrs by RNA-seq analysis; type: cell-based
MV4-11 [19] = assay: Induction of apoptosis in human MV4-11 cells assessed as apoptotic cells at 6.7 uM after 48 hrs by Annexin V-FITC/propidium iodide staining-based flow cytometric analysis; type: functional
[20] = target: T1, CREB-binding protein/Histone acetyltransferase p300 (Homo sapiens); assay: Inhibition of P300/CBP in human MV4-11 cells assessed as upregulation of BAX RNA expression at 20 uM after 12 hrs by RT-PCR analysis; type: cell-based
MV4-11 [21] = assay: Induction of apoptosis in human MV4-11 cells assessed as increase in cleaved caspase9 levels after 24 hrs by Western blot analysis; type: functional, cell-based
[22] = target: T1, CREB-binding protein/Histone acetyltransferase p300 (Homo sapiens); assay: Inhibition of P300/CBP acetyl transferase activity in human MV4-11 cells assessed as reduction in acetylated H3K18 levels after 24 hrs in presence of SAHA by Western blot analysis; type: cell-based
[23] = target: T1, CREB-binding protein/Histone acetyltransferase p300 (Homo sapiens); assay: Inhibition of P300/CBP in human MV4-11 cells assessed as upregulation of SESN2 RNA expression at 20 uM after 12 hrs by RT-PCR analysis; type: cell-based
[24] = target: T1, CREB-binding protein/Histone acetyltransferase p300 (Homo sapiens); assay: Inhibition of P300/CBP in human MV4-11 cells assessed as downregulation of CCNA2 RNA expression at 20 uM after 12 hrs by RNA-seq analysis; type: cell-based
KOPN-8 = assay: Antiproliferative activity against human KOPN8 cells after 72 hrs by CellTiter-Glo assay; details: KOPN-8, 72 h
MV4-11 [25] = assay: Antitumor activity against human MV4-11 cells xenografted in ip dosed nude mouse assessed as reduction in tumor growth rate administered every 2 days for 20 days; type: functional, organism-based
Kasumi 1 = assay: Antiproliferative activity against human Kasumi-1 cells after 72 hrs by CellTiter-Glo assay; details: Kasumi 1, 72 h
[26] = target: T1, CREB-binding protein/Histone acetyltransferase p300 (Homo sapiens); assay: Inhibition of P300/CBP in human MV4-11 cells assessed as downregulation of CCNB1 RNA expression at 20 uM after 12 hrs by RNA-seq analysis; type: cell-based
MOLT-4 = assay: Antiproliferative activity against human MOLT4 cells after 72 hrs by CellTiter-Glo assay; details: MOLT-4, 72 h
[27] = target: T1, CREB-binding protein/Histone acetyltransferase p300 (Homo sapiens); assay: Inhibition of P300/CBP in human MV4-11 cells assessed as change in DEPDC1 mRNA expression at 20 uM after 12 hrs by RNA-seq analysis; type: cell-based
MV4-11 [28] = assay: Induction of apoptosis in human MV4-11 cells up to 20 uM after 48 hrs by Annexin V-FITC/propidium iodide staining-based flow cytometric analysis; type: functional, cell-based
[29] = target: T1, CREB-binding protein/Histone acetyltransferase p300 (Homo sapiens); assay: Inhibition of P300/CBP in human MV4-11 cells assessed as downregulation of MYC RNA expression at 20 uM after 12 hrs by RNA-seq analysis; type: cell-based
[30] = target: T1, CREB-binding protein/Histone acetyltransferase p300 (Homo sapiens); assay: Inhibition of P300/CBP in human MV4-11 cells assessed as upregulation of GADD45B RNA expression at 20 uM after 12 hrs by RT-PCR analysis; type: cell-based
[31] = target: T1, CREB-binding protein/Histone acetyltransferase p300 (Homo sapiens); assay: Inhibition of P300/CBP in human MV4-11 cells assessed as change in UHRF1 mRNA expression at 20 uM after 12 hrs by RNA-seq analysis; type: cell-based
[32] = target: T1, CREB-binding protein/Histone acetyltransferase p300 (Homo sapiens); assay: Inhibition of P300/CBP in human MV4-11 cells assessed as downregulation of HIF1A RNA expression at 20 uM after 12 hrs by RNA-seq analysis; type: cell-based
MV4-11 [33] = assay: Induction of apoptosis in human MV4-11 cells assessed as increase in cleaved PARP levels after 24 hrs by Western blot analysis; type: functional, cell-based
MV4-11 [34] = assay: Antitumor activity against human MV4-11 cells xenografted in nude mouse assessed as reduction in tumor cell proliferation at 25 to 50 mg/kg, ip administered every 2 days for 20 days by KI-67-staining based microscopic analysis; type: functional, organism-based

Chain of Histone acetyltransferase p300 (Q09472 whole entry): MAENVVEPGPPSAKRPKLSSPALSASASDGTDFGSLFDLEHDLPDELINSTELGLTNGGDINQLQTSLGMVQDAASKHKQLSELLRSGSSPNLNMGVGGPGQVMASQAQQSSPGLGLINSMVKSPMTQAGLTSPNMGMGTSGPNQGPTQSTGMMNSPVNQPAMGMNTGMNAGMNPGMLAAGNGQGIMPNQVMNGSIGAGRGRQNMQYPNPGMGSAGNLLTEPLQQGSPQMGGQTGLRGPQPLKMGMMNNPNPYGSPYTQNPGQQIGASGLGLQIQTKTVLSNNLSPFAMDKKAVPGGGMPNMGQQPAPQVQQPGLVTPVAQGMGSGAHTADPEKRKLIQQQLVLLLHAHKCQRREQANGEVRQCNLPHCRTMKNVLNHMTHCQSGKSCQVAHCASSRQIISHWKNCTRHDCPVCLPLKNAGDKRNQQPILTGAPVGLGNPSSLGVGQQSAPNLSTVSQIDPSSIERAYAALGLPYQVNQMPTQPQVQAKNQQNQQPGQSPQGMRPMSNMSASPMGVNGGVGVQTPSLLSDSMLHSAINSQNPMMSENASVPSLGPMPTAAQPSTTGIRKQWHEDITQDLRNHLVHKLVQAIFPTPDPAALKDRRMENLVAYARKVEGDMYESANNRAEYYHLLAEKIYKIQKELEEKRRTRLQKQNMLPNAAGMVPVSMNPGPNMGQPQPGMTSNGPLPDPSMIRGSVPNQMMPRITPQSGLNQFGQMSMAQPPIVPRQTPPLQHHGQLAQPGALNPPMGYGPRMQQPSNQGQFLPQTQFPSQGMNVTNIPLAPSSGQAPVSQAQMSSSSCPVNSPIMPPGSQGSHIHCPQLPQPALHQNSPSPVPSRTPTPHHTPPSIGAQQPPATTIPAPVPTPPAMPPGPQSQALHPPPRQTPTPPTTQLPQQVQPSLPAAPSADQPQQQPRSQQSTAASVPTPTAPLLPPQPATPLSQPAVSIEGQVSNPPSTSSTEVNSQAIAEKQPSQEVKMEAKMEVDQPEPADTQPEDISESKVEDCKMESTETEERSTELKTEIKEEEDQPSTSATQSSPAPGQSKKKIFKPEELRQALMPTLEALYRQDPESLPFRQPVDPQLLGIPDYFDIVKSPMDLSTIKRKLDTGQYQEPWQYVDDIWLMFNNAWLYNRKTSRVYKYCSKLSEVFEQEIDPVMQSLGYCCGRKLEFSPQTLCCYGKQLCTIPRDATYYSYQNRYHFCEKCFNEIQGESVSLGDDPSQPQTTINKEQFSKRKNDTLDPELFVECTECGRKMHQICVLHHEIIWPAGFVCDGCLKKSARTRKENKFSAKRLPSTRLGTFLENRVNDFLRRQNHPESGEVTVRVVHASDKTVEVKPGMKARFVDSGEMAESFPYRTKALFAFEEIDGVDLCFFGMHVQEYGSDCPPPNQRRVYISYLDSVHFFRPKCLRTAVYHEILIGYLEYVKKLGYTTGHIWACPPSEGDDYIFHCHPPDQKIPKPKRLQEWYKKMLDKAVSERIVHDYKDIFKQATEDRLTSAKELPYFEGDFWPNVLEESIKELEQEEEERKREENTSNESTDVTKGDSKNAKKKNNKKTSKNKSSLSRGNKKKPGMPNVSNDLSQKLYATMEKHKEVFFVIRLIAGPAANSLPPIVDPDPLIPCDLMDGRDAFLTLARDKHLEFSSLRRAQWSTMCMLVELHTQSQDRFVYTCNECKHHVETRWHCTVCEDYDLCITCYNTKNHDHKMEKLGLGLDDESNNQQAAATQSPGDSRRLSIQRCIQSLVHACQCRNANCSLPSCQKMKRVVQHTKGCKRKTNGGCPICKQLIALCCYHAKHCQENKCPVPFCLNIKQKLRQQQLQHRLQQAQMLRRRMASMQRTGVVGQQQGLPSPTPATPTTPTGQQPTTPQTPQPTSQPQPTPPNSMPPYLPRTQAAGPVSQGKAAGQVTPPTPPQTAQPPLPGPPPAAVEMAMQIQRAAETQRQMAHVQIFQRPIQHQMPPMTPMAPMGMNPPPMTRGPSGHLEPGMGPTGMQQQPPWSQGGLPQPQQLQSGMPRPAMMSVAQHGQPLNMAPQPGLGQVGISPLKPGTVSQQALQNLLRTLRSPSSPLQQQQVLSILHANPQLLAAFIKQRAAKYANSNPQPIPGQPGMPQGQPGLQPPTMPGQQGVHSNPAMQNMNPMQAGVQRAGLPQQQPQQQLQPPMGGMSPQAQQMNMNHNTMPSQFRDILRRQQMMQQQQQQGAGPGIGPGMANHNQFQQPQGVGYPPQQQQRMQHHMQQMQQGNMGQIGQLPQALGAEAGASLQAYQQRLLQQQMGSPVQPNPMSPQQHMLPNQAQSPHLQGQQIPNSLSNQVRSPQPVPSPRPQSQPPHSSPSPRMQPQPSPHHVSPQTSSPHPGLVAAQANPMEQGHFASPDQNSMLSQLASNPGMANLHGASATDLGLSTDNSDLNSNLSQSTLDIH
T1 sequence (Q09472 whole entry, looked up): as the sequence (Q09472 whole entry) above
T1 sequence (Q92793 whole entry, looked up): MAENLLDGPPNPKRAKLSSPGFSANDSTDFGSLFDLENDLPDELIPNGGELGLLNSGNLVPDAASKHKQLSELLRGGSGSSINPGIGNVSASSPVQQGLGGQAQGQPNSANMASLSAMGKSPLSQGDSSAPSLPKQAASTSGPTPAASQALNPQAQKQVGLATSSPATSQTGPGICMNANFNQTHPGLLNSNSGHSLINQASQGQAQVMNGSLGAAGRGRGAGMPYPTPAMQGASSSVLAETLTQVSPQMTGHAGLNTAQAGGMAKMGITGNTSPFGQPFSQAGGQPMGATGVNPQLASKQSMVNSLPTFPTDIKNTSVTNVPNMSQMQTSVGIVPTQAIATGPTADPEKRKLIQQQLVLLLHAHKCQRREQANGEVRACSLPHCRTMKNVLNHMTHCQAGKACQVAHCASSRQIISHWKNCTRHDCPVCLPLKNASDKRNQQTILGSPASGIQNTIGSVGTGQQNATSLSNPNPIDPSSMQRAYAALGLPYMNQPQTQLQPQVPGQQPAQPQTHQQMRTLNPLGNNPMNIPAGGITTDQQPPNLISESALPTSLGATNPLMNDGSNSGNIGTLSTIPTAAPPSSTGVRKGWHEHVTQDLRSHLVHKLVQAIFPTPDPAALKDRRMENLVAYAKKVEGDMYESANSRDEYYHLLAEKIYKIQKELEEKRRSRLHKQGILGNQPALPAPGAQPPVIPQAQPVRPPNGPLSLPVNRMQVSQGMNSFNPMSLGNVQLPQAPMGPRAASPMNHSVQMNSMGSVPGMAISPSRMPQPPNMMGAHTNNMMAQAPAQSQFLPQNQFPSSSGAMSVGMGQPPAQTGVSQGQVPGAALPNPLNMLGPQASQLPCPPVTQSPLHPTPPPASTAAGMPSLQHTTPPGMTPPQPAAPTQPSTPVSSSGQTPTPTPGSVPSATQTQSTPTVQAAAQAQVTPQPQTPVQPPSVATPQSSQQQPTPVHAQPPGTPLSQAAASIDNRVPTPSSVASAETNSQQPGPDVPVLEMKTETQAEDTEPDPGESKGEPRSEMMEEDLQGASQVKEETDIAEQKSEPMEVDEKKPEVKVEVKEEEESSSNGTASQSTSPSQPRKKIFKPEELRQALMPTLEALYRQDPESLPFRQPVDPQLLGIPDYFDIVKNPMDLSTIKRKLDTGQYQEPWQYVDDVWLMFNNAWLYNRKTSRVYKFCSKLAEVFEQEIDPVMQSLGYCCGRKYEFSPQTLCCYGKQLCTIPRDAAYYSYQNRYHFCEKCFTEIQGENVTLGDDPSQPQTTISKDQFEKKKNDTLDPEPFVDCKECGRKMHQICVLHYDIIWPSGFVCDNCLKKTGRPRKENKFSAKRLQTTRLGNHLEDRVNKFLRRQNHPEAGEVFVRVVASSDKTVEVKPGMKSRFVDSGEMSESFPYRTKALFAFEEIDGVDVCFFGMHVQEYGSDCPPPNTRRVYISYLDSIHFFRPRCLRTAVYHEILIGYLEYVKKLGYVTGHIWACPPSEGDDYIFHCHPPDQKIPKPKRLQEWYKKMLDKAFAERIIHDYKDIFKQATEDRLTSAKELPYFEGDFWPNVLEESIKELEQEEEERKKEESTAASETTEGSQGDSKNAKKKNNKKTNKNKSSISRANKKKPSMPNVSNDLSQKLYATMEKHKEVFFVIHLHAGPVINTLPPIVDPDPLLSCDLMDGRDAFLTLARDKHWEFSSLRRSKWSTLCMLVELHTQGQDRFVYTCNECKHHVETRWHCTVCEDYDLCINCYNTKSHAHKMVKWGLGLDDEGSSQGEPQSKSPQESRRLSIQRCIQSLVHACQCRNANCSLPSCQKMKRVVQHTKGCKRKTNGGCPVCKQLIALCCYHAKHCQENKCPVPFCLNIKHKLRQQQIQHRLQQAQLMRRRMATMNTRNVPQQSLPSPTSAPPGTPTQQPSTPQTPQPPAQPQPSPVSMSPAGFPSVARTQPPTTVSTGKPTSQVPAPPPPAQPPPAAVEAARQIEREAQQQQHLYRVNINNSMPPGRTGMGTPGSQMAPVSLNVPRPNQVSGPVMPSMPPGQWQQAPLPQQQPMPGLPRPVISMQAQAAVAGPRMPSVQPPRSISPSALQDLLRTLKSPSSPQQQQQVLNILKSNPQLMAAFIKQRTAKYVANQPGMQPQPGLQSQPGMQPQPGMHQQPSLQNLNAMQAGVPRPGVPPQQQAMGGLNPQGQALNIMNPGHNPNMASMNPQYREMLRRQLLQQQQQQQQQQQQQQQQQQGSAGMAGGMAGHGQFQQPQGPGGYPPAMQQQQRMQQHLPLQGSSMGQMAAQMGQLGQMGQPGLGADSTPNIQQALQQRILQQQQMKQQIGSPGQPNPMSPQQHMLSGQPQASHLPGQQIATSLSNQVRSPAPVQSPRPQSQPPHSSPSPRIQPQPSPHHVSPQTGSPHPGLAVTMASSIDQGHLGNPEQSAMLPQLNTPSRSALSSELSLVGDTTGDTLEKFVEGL
Chain of CREB-binding protein (Q92793 whole entry): as the sequence (Q92793 whole entry, looked up) above

CN1C(=O)/C(=C/c2ccccc2)C(=O)NC1=S
IC50 [1]: 45 µM
inhibition [2]: inactive
inhibition [3]: inactive
IC50 (MV4-11 [4]): > 100 µM

CCCCCCCCCCCCCCCc1cccc(O)c1C(=O)O [ANACARDIC ACID]
IC50 [5]: 64 µM

Cc1ccc(N2C(=O)/C(=C\C=C\c3ccco3)C(=O)NC2=S)cc1Cl
inhibition [6]: Active
IC50 [1]: 0.7 µM
inhibition [7]: Dose-dependent effect
inhibition [8]: Active
Activity (MV4-11 [9]): Dose-dependent effect
IC50 (MOLT-3): 2.7 µM
inhibition [10]: Active
inhibition [11]: Active
inhibition [12]: Active
IC50 (K562): 3.1 µM
IC50 (CREB-binding protein): 3.2 µM
inhibition [13]: Active
inhibition [14]: Active
Activity (MV4-11 [15]): Dose-dependent effect
IC50 (RS4-11): 4.7 µM
IC50 (THP-1): 3 µM
Activity (MV4-11 [16]): Dose-dependent effect
IC50 (Jurkat): 2.2 µM
IC50 (CCRF-CEM): 3.8 µM
inhibition [17]: Active
inhibition [18]: Active
Activity (MV4-11 [19]): >=60%
inhibition [20]: Active
Activity (MV4-11 [21]): Dose-dependent effect
inhibition [22]: Dose-dependent effect
inhibition [23]: Active
inhibition [24]: Active
IC50 (KOPN-8): 5.9 µM
TGI (MV4-11 [25]): Dose-dependent effect
IC50 (Kasumi 1): 1.9 µM
inhibition [26]: Active
IC50 (MOLT-4): 3.5 µM
inhibition [27]: Active
Activity (MV4-11 [28]): Dose-dependent effect
inhibition [29]: Active
inhibition [30]: Active
IC50 (MV4-11 [4]): 1.1 µM
inhibition [31]: Active
inhibition [32]: Active
Activity (MV4-11 [33]): Dose-dependent effect
Activity (MV4-11 [34]): Active

CN1C(=O)/C(=C/c2c[nH]c3ccccc23)C(=O)NC1=S
IC50 [1]: > 50 µM

CN1C(=O)/C(=C/c2ccncc2)C(=O)NC1=S
IC50 [1]: > 50 µM

CN1C(=O)/C(=C/c2ccc(N3CCOCC3)o2)C(=O)NC1=S
IC50 [1]: > 50 µM

Cc1cc(/C=C2\C(=O)NC(=S)N(C)C2=O)c(C)n1C
IC50 [1]: 14 µM
